Measured values published in PubChem BioAssay (NCI).
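1) Cells in 96-well plates. 2) Compound, 48 h, 5 concentrations. 3) Linear interpolation between surrounding doses. 4) Unreached endpoint = highest concentration. TGI marks complete inhibition of growth.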

What was measured:
Test in all cases: growth of human tumour cells (NCI), 48 h
[1] = tested on: OVCAR-3 ovarian
[2] = tested on: IGROV1 ovarian
[3] = tested on: NCI-H522 lung
[4] = tested on: XF 498 CNS
[5] = tested on: KM20L2 colon
[6] = tested on: SK-MEL-5 melanoma
[7] = tested on: COLO 205 colon
[8] = tested on: OVCAR-4 ovarian
[9] = tested on: ACHN renal
[10] = tested on: NCI-H23 lung
[11] = tested on: HCT-15 colon
[12] = tested on: SW-620 colon
[13] = tested on: CAKI-1 renal
[14] = tested on: DMS 114 small cell lung
[15] = tested on: A549 NSCLC
[16] = tested on: DMS 273 small cell lung
[17] = tested on: SNB-19 CNS
[18] = tested on: UACC-257 melanoma
[19] = tested on: UO-31 renal
[20] = tested on: EKVX NSCLC
[21] = tested on: RPMI-8226 leukemia
[22] = tested on: NCI-H226 lung
[23] = tested on: UACC-62 melanoma
[24] = tested on: SK-OV-3 ovarian
[25] = tested on: LOX IMVI melanoma
[26] = tested on: RXF 393 renal
[27] = tested on: SN12C renal
[28] = tested on: SF-539 CNS
[29] = tested on: U251 CNS
[30] = tested on: SF-268 CNS
[31] = tested on: MOLT-4 leukemia
[32] = tested on: SK-MEL-28 melanoma
[33] = tested on: CCRF-CEM leukemia
[34] = tested on: MALME-3M melanoma
[35] = tested on: 786-0 renal
[36] = tested on: SR leukemia
[37] = tested on: HCC-2998 colon
[38] = tested on: SNB-78 CNS
[39] = tested on: HOP-18 NSCLC
[40] = tested on: SF-295 CNS
[41] = tested on: M14 melanoma
[42] = tested on: HCT-116 colon
[43] = tested on: OVCAR-5 ovarian
[44] = tested on: SK-MEL-2 melanoma
[45] = tested on: NCI-H460 lung
[46] = tested on: TK-10 renal
[47] = tested on: HOP-92 NSCLC
[48] = tested on: HL-60(TB) leukemia
[49] = tested on: OVCAR-8 ovarian
[50] = tested on: HOP-62 NSCLC
[51] = tested on: K-562 leukemia
[52] = tested on: DLD-1 colon
[53] = tested on: M19-MEL melanoma
[54] = tested on: LXFL 529 NSCLC
[55] = tested on: KM12 colon
[56] = tested on: HT29 colon
[57] = tested on: SNB-75 CNS
[58] = tested on: A498 renal

CCOc1ccc(N=Nc2ccc3oc(=O)c(/C(C)=N/NC(=O)CC(=O)Nc4cccc(OC)c4)cc3c2)cc1
TGI [1]: 37 µM
TGI [2]: 65.4 µM
TGI [3]: 72.4 µM
TGI [4]: 42 µM
TGI [5]: > 31.6 µM
TGI [6]: 58.4 µM
TGI [7]: 78.3 µM
TGI [8]: 52.6 µM
TGI [9]: 51.6 µM
TGI [10]: 33.4 µM
TGI [11]: > 86.3 µM
TGI [12]: 85.1 µM
TGI [13]: > 45.4 µM
TGI [14]: 44.5 µM
TGI [15]: > 74.6 µM
TGI [16]: > 71.2 µM
TGI [17]: > 79 µM
TGI [18]: 22 µM
TGI [19]: 29.5 µM
TGI [20]: 55.5 µM
TGI [21]: 53.7 µM
TGI [22]: > 73 µM
TGI [23]: 39.7 µM
TGI [24]: 82.3 µM
TGI [25]: 60.5 µM
TGI [26]: 38.1 µM
TGI [27]: 30.8 µM
TGI [28]: 51 µM
TGI [29]: 17.1 µM
TGI [30]: 52.5 µM
TGI [31]: > 56 µM
TGI [32]: 92 µM
TGI [33]: 21.6 µM
TGI [34]: 37.5 µM
TGI [35]: 22.3 µM
TGI [36]: 10.1 µM
TGI [37]: 30.2 µM
TGI [38]: > 95.9 µM
TGI [39]: 74.4 µM
TGI [40]: 53.8 µM
TGI [41]: 77.3 µM
TGI [42]: 33.7 µM
TGI [43]: > 70.3 µM
TGI [44]: 45.7 µM
TGI [45]: 46.3 µM
TGI [46]: > 100 µM
TGI [47]: 47.4 µM
TGI [48]: 16.1 µM
TGI [49]: > 61.4 µM
TGI [50]: 31.7 µM
TGI [51]: 86.5 µM
TGI [52]: 45.5 µM
TGI [53]: > 88.1 µM
TGI [54]: 33.5 µM
TGI [55]: > 56.9 µM

O/N=C1/C(=C/c2ccc(Cl)c(Cl)c2)CCCC1C(NO)c1ccc(Cl)c(Cl)c1 (configuration not stated)
TGI [1]: 27.8 µM
TGI [2]: 38.5 µM
TGI [3]: 25 µM
TGI [4]: 33.9 µM
TGI [5]: 35.3 µM
TGI [6]: 35.3 µM
TGI [7]: 35.7 µM
TGI [8]: 26.7 µM
TGI [9]: 33 µM
TGI [10]: 35.6 µM
TGI [11]: 37.2 µM
TGI [12]: 36 µM
TGI [13]: 34 µM
TGI [14]: 37.3 µM
TGI [15]: 41.3 µM
TGI [16]: 36 µM
TGI [17]: 33.1 µM
TGI [18]: 34.1 µM
TGI [19]: 35.7 µM
TGI [20]: 42.9 µM
TGI [21]: 53.6 µM
TGI [23]: 35 µM
TGI [24]: 39.1 µM
TGI [26]: 43.3 µM
TGI [27]: 35.2 µM
TGI [28]: 33.2 µM
TGI [29]: 34.2 µM
TGI [30]: 45.7 µM
TGI [31]: 33.8 µM
TGI [32]: 34.5 µM
TGI [33]: 46.1 µM
TGI [34]: 44.4 µM
TGI [35]: 42.4 µM
TGI [37]: 36.8 µM
TGI [56]: 32.1 µM
TGI [38]: 37.7 µM
TGI [57]: 31.1 µM
TGI [39]: 30.5 µM
TGI [41]: 34.6 µM
TGI [42]: 30.3 µM
TGI [44]: 38.5 µM
TGI [45]: 40 µM
TGI [46]: 36.3 µM
TGI [48]: 39 µM
TGI [49]: 36.7 µM
TGI [50]: 48.2 µM
TGI [51]: 63.6 µM
TGI [52]: 37 µM
TGI [53]: 33.8 µM
TGI [58]: 27.4 µM
TGI [54]: 29.5 µM
TGI [55]: 31.9 µM
